# Values joined by “and” are separate entries in the source; they are usually repeats but may differ in a detail not shown here. Identical values can stand only once. “Also recorded” adds a separate entry of the source. No end group written: not given here.
# Assays:
# CCR7 = assay: RT-PCR of spinal cord, CCR7 expression; assay type: in vivo, mice
# Protocol: (§1) At 7-8 weeks of age, mice were immunized with […] emulsion (Hooke Laboratories #EK-2110 provided pre-formulated). Mice received pertussis toxin (Hooke Laboratory, Cat #EK-2110 provided lyophilized) reconstituted in phosphate buffered saline (PBS) at the time of immunization (day 0; 75 ng) and on day 2 (200 ng). Animals were scored daily for disease severity: 0=normal, 1=tail paralysis, 2=tail paralysis and strong hind limb weakness, 3=complete hind limb paralysis, 4=hind limb and forelimb paralysis, 5=found dead.
# (§2) At the onset of EAE (the first day with a score of 1 or greater), subcutaneous alzet pumps (DURECT Corporation, Cupertino, Calif.) were inserted and the animals were randomly assigned to receive either porcine relaxin (SKY BioHealth, Inc., Eden Prairie, Minn., 66.0 μg/day) or placebo treatment (1 μ/Hr PBS), either recombinant porcine relaxin (pRLN, n=8) or placebo (PBS, n=8) at a rate of 0.110/hr. […]
# (§3) β-actin. Alternatively RT-PCR for the chemokine receptors (CCR); CCR2, CCR5, CCR7, the interleukins (IL-6 and IL-17) were analyzed using quantitect primers (table 2) and SYBR green based RT-PCR kits (Qiagen, Valencia, Calif.). For histology, spinal cords sections were stained using luxol fast blue-periodic acid shiff for semi-quantitative analysis of infiltration and demyelination.
# EAE mouse model = assay: EAE disease severity, daily clinical score; assay type: in vivo, mice
# Protocol: Female C57BL/6 mice were obtained and housed at Biomedical Research Models (Worcester, Mass.)
# as §1
# (§4) At the onset of EAE (the first day with a score of 1 or greater), subcutaneous alzet pumps (DURECT Corporation, Cupertino, Calif.) were inserted and the animals were randomly assigned to receive either porcine relaxin (SKY BioHealth, Inc., Eden Prairie, Minn., […]) or placebo treatment (1 μ/Hr PBS), either recombinant porcine relaxin (pRLN, n=8) or placebo (PBS, n=8) at a rate of 0.110/hr. Relaxin (SKY BioHealth, Inc., Eden Prairie, Minn/) was administered at a concentration of 0.25 mg/ml for the remainder of the study. This delivered a standard dose of 0.66 μg/day of pRLN, which is equivalent to the identified effective dose of 30 μg/KG body weight/day (Hasse et al, 2014). Statistical analysis was done using the t-test and P values <0.05 were considered to be statistically significant.
# CD68 = CD68 immunohistochemistry of spinal cord (macrophages); assay type: in vivo; settings: EAE mice, vs untreated; listed as RLN
# Protocol: (§5) For alternative histology, spinal cords were formalin fixed and paraffin embedded (FFPE) as described by Canene-Adams [Canene-Adams, 2013]. Briefly, Spinal cords were rinsed in PBS to remove blood and fixed in 10% formalin for 48 hours at room temperature. Tissues were then transferred to 70% ethanol (ETOH) for 1 hour, 95% ETOH (95% ETOH/5% methanol) for 1 hour, then incubated in four absolute ETOH baths first for 1 hour, then 2 for 1½ hours, followed by a fourth for 2 hours. Tissues were then cleared with two xylene baths for 1 hour each. Tissues were then incubated in two paraffin baths at 58° C. for 1 hour each. Tissues were then removed and placed in cassettes.
# (§6) The FFPE tissues were sectioned into […] slices on a microtome. Slices were transferred to glass slides and warmed to 65° C. for 20 minutes to bond the tissue to the glass.
# (§7) Sections were stained with Kiernan's eriochrome cyanin for myelin [Kiernan J A, 1999], cluster of differentiation 68 (CD68) for macrophages [Holness and Simmons, 1993], neurofilaments [Alberts, B. 2002] and glial fibrillary acidic protein (GFAP) [Jacque C M, et al, 1978].
# (§8) Standard immunohistochemistry [Ramos-vara and Miller, 2014] was used to identify the presence of CD68, neurofilaments and GFAP in the FFPE tissues. Essentially the appropriate antibody directed against the antigen of choice was incubated with the tissue and allowed to bind. […]
# IL-10 = assay: RT-PCR of spinal cord, IL-10 expression; assay type: in vivo; settings: EAE mice, in words (FIG. 3)
# Protocol: as §1, §4
# (§9) Spinal cords and brains were collected for RT-PCR and histopathology. […]
# neurofilaments = assay: Neurofilament immunohistochemistry of spinal cord; assay type: in vivo; settings: EAE mice, vs untreated; listed as RLN
# Protocol: as §5, §6, §7, §8
# myelin = assay: Kiernan's eriochrome cyanin stain of spinal cord for myelin; assay type: in vivo; settings: EAE mice, vs untreated (loss of myelin)
# Protocol: as §5, §6, §7
# Kiernan's stain for myelin was done as described. First tissues were placed in a solution containing eriochrome cyanine R, ferric chloride and sulphuric acid in water for 20 minutes. Rinsed briefly under tap water and differentiated with aqueous ferric chloride (5.6%). […]
# spinal cord lesions = assay: Spinal cord histology, infiltration and demyelination (lesion load); assay type: in vivo; settings: EAE mice, compared to control animals, data not shown
# Protocol: as §3
# MIR2 = assay: Spinal cord expression of MIR2; assay type: in vivo; settings: EAE mice, in words (FIG. 3)
# Protocol: as §1, §4, §9
# [1] = limited clinical trials (Smith 2006); cited from earlier work
# [2] = system: inflammation and Wallerian degeneration of the spinal cord; assay: H&E staining of spinal cord; assay type: in vivo; settings: EAE mice, vs untreated
# Protocol: as §5, §6
# Staining with Hematoxylin and eosin (H&E) stain was also carried out according to standard protocols.
# IL-17 = assay: RT-PCR of spinal cord, IL-17 expression; assay type: in vivo, mice; settings: for change of spinal cord IL-17 expression vs placebo: EAE mice, in words
# Protocol: as §1, §4
# (§10) Spinal cords and brains were collected for RT-PCR and histopathology. Total RNA was isolated from spinal cord and brain tissue using the RNeasy mini-kit protocol (Qiagen; Valencia, Calif.) and converted to cDNA using oligo(dT), random hexamers, and Superscript RT II (Invitrogen; Grand Island, N.Y.). […]
# as §3
# IL-6 = assay: RT-PCR of spinal cord, IL-6 expression; assay type: in vivo, mice; settings: for change of spinal cord IL-6 expression vs placebo: EAE mice, in words
# Protocol: as §1, §4, §10, §3
# GFAP = GFAP immunohistochemistry of spinal cord (gliosis); assay type: in vivo; settings: EAE mice, untreated stained positive (extensive gliosis)
# Protocol: as §5, §6, §7, §8
# CCR5 = assay: RT-PCR of spinal cord, CCR5 expression; assay type: in vivo, mice
# Protocol: as §1, §2, §3
# CCR2 = assay: RT-PCR of spinal cord, CCR2 expression; assay type: in vivo, mice
# Protocol: as §1, §2, §3
substance,measurement,setting,value
"relaxin: porcine relaxin (SKY BioHealth, Inc.), recombinant porcine relaxin (pRLN), infused by subcutaneous alzet pump (Relaxin B chain QSTNDFIKACGRELVRLWVEICGSVSWGRTAL; Relaxin A chain RMTLSEKCCQVGCIRKDIARLC; ends and bridges not checked; cysteine pairing not given here; UniProt P01348 25-56; P01348 161-182, looked up)",change of spinal cord CCR7 expression vs PBS/placebo,"CCR7; EAE mice, in words",decreased; also recorded: significant reductions
same,spinal cord expression of CCR7,"CCR7; normalized to β-actin, EAE mice n=8, further studies (FIG. 2b), p<0.05 vs placebo 0.014",0.003 relative units
same,time to marked improvement in clinical score,"EAE mouse model; EAE mice, after commencing continuous infusion (FIG. 1a)",≤ 3 days
same,clinical score at the end of treatment,"EAE mouse model; EAE mice, n=8, scale 0-5, subcutaneous alzet pump from EAE onset, score 2.0 at start, placebo 1.5, listed as RLN",0.5 and > 0.5
same,change in clinical score compared to PBS control,"EAE mouse model; EAE model animals, FIG. 1a",improvement in clinical score
same,macrophage infiltration of the spinal cord (CD68),CD68,greater infiltration of macrophages in the untreated samples than in those treated with RLN; also recorded: decreased macrophage infiltration
same,change of spinal cord IL-10 expression,IL-10,decreased
same,loss of neurofilament in the spinal cord,neurofilaments,relatively greater loss of neurofilaments compared to mice receiving RLN therapy; also recorded: greater loss of neurofilament in the spinal cords of untreated mice
same,myelin in spinal cord sections,myelin,decreases myelination and increases remyelination
same,myelin in spinal cord sections,myelin; listed as RLN,normal appearing myelin
same,lesion load and size in the spinal cord,spinal cord lesions,reduced lesion load and size
same,change of spinal cord MIR2 expression,MIR2,increased
same,change of spinal cord MIR2 expression,MIR2; listed as RLX,increased the expression of the MIR2
same,severe side effects,[1],no severe side effects
same,inflammation and Wallerian degeneration of the spinal cord,[2],decrease in inflammation and Wallerian degeneration
same,change of spinal cord IL-17 expression vs placebo,IL-17,significantly decreased
same,change of spinal cord IL-17 expression vs placebo,IL-17; listed as RLX,decreased
same,spinal cord expression of IL-17,"IL-17; normalized to β-actin, EAE mice n=8, further studies (FIG. 4), p<0.05 vs placebo 0.00026",0.000078 relative units
same,change of spinal cord IL-6 expression vs placebo,IL-6,significantly decreased
same,change of spinal cord IL-6 expression vs placebo,IL-6; listed as RLX,decreased
same,spinal cord expression of IL-6,"IL-6; normalized to β-actin, EAE mice n=8, further studies (FIG. 4), p<0.05 vs placebo 0.0009",0.0004 relative units
same,GFAP staining of spinal cord / gliosis,GFAP,complete lack of gliosis
same,GFAP staining of spinal cord / gliosis,GFAP; listed as RLN,negative for GFAP; also recorded: did not stain positively for GFAP
same,change of spinal cord CCR5 expression vs PBS/placebo,"CCR5; EAE mice, in words",decreased; also recorded: significant reductions
same,spinal cord expression of CCR5,"CCR5; normalized to β-actin, EAE mice n=8, further studies (FIG. 2b), not significant vs placebo 0.0046",0.0035 relative units
same,change of spinal cord CCR2 expression vs PBS/placebo,"CCR2; EAE mice, in words",decreased; also recorded: significant reductions
same,spinal cord expression of CCR2,"CCR2; normalized to β-actin, EAE mice n=8, further studies (FIG. 2b), p<0.05 vs placebo",0.044 relative units

# — patent US11344607B2, “Treatment of disease with relaxin” (BV Biomed Ltd, priority 2015, dated 2022)
